According to patent publication US8377945B2, “Small molecule inhibitors of spleen tyrosine kinase (SYK)” (Rigel Pharmaceuticals Inc., priority 2009, dated 2013):

Key:
[1] = test system: Human mast cells (CHMC cells); assay: Tryptase release assay (mast cell degranulation induced by anti-IgG FcγR cross-linking); format: cell-based; settings: IC50 of tryptase release from human mast cells after anti-IgG stimulation, read-out: LD Tryptase
Experimental: Compounds were assayed for inhibition of mast cell activation induced by FcγR cross-linking by measuring the activity of tryptase released upon degranulation as follows:
Human mast cells were cultured and differentiated from […] progenitor cell as described in U.S. Patent Publication No. 2005-234049, incorporated herein by reference. For example, 65 μl of various concentrations of the compound to be assayed were prepared in MT (137 mM NaCl, 2.7 mM KCl, 1.8 mM CaCl2, 1.0 mM MgCl2, 5.6 mM Glucose, 20 mM Hepes (pH 7.4), 0.1% Bovine Serum Albumin, (Sigma A4503)) containing 2% MeOH and 1% DMSO, or control buffer were added to duplicate 96-well V-bottom plates. Pelleted and resuspended (in warm MT) CHMC cells (65 μl) were added to each 96-well plate, mixed and incubated for 1 hour at 37° C. 25 μl of 6× anti-IgG Rabbit anti-human IgG, Affinity purified (Bethyl Laboratories Cat No. A80-105A3) final concentration 1 μg/ml, was added to the test wells. MT (25 μl) was added to control wells. After a 60-minute incubation at 37° C., cells and cell debris were pelleted by centrifugation at 1000 rpm for 10 min and tryptase and leukotriene C4 levels were measured.
To measure tryptase levels, 25 μl of supernatant from each well was transferred to a fresh 96-well black bottom plate, to which 100 μl of fresh tryptase substrate solution [(Z-Ala-Lys-Arg-AMC2TFA; Enzyme Systems Products, #AMC-246)] 1:2000 in tryptase assay buffer [0.1 M Hepes (pH 7.5), 10% w/v Glycerol, 10 μM Heparin (Sigma H-4898) 0.01% NaN3] was added. After 30 minute incubation at room temperature, the optical density of the plates is measured at 355 nm/460 nm on a spectrophotometric plate reader. Table 2 provides the IC50 values.

Syk kinase = target: T1, Syk kinase (Homo sapiens, UniProt P43405); assay: ELISA-based Syk kinase assay (phosphorylation of HS1 peptide substrate by isolated Syk kinase); format: biochemical; settings: IC50 of Syk kinase inhibition; 2 μM ATP, 2 μM peptide substrate
T1 construct: purchased Millipore 14-314
Experimental: Compounds were tested for the ability to inhibit Syk kinase catalyzed phosphorylation of a peptide substrate in an assay with isolated Syk kinase.
An assay was carried out in a Costar white 96 well plate (Fisher Scientific, Cat No. 07-200-591) coated overnight with 0.01 mg/ml Neutravidin (Pierce, 100 μl/well) at 4° C. Neutravidin pre-coated 96 well plates were blocked with 2% BSA in PBST buffer for at least 1 hour before starting the assay at room temperature. Serially diluted compound stock solution containing a subject compound was prepared separately in DMSO solution starting from 300 μM and 2 μl of this diluted compound (3% DMSO final concentration) was added directly to neutravidin coated assay plate containing 55.5 μl/well of kinase reaction buffer composed of 20 mM HEPES, pH 7.4, 5 mM MgCl2, 2 mM MnCl2, 1 mM DTT, 0.01% Tween 20 pre-mixed with ATP and kinase substrate (HS1 peptide). Reaction was initiated by adding of 2.5 μl/well Syk kinase (Millipore, Cat No. 14-314) resulting in a final reaction volume of 60 μl and then the reaction was allowed to continue for 30 minutes at room temperature. Final enzyme reaction conditions were 20 mM HEPES, pH 7.4, 5 mM MgCl2, 2 mM MnCl2, 1 mM DTT, 0.01% Tween 20, 0.25 ng Syk, 2 μM ATP, 2 μM peptide substrate (Biotin-EQEDEPEGDYEEVLE-CONH2, SynPep Corporation). After completing the reaction, assay plate was washed three times with PBST and incubated for 1 hour at room temperature with 100 μl/well of phosphopeptide detection antibody solution prepared by mixing 1-1000 diluted mouse anti-pTyr monoclonal antibody (Cell Signal Technology, Cat No. 9411) and 1-1000 diluted goat HRP-conjugated anti-mouse IgG (Jackson Immunoresearch, Cat. No. 115-035-003). Before developing the plate with supersignal ELISA pico chemiluminescent substrate (Pierce), plate was washed three times again with PBST and were read on a SpectraMax M5 microplate reader (Moleculear Devices).

IC50 [1] [µM]	IC50 (Syk kinase) [µM]	SMILES
> 5000	3 to 25	COc1ccc(-c2[nH]c3c(C#N)cnn3c2Nc2ccc(OC)c(OC)c2)cc1F [Compound 52]
< 10	0.51 to 2.99	COc1cc(-c2[nH]c3c(C#N)cnn3c2Nc2ccc(F)c(F)c2)cc(OC)c1OC [Compound 64]
< 10	0.51 to 2.99	COc1cc(-c2[nH]c3c(C#N)cnn3c2Nc2ccc(CNC(C)=O)cc2)cc(OC)c1OC [Compound 72]
< 10	< 0.5	COC(=O)COc1ccc(-c2[nH]c3c(C#N)cnn3c2Nc2ccc3c(c2)OCCO3)cc1OC [Compound 85]
< 10	< 0.5	COc1cc(Nc2c(-c3cc(OC)c(OC)c(OC)c3)[nH]c3c(C#N)cnn23)ccc1F [Compound 87]
101 to 5000	0.51 to 2.99	N#Cc1cnn2c(Nc3ccc(Br)cc3)c(-c3ccc(C(N)=O)cc3)[nH]c12 [Compound 98]
< 10	< 0.5	COc1ccc(Nc2c(-c3cc(O)c(OC)c(OC)c3)[nH]c3c(C#N)cnn23)cc1OC [Compound 100]
< 10	0.51 to 2.99	COc1ccc(Nc2c(-c3ccc(OCCO)c(OC)c3)[nH]c3c(C#N)cnn23)cc1OC [Compound 101]
11 to 100	< 0.5	COc1ccc(Nc2c(-c3ccc(C(N)=O)cc3)[nH]c3c(C#N)cnn23)cc1OC [Compound 103]
< 10	0.51 to 2.99	COc1ccc(Nc2c(-c3ccc(N4CCOCC4)cc3)[nH]c3c(C#N)cnn23)cc1OC [Compound 104]
11 to 100	0.51 to 2.99	COc1ccc(Nc2c(-c3cccc(N4CCOCC4)c3)[nH]c3c(C#N)cnn23)cc1OC [Compound 105]
< 10	< 0.5	COc1ccc(Nc2c(-c3ccc(OC)c(OC4CCCC4)c3)[nH]c3c(C#N)cnn23)cc1OC [Compound 106]
< 10	0.51 to 2.99	COc1ccc(Nc2c(-c3ccc(OCCN4CCCC4=O)cc3)[nH]c3c(C#N)cnn23)cc1OC [Compound 107]
< 10	< 0.5	COCCOc1ccc(-c2[nH]c3c(C#N)cnn3c2Nc2ccc(OC)c(OC)c2)cc1OC [Compound 108]
11 to 100	0.51 to 2.99	COc1cc(Nc2c(-c3ccc4c(c3)NC(=O)CO4)[nH]c3c(C#N)cnn23)ccc1F [Compound 109]
< 10	0.51 to 2.99	COc1ccc(Nc2c(-c3cccc(O)c3)[nH]c3c(C#N)cnn23)cc1OC [Compound 112]
< 10	0.51 to 2.99	COC(=O)COc1ccc(-c2[nH]c3c(C#N)cnn3c2Nc2ccc(OC)c(OC)c2)cc1 [Compound 113]
< 10	0.51 to 2.99	COc1ccc(Nc2c(-c3cccc(NS(C)(=O)=O)c3)[nH]c3c(C#N)cnn23)cc1OC [Compound 114]
< 10	< 0.5	COc1cc(Nc2c(-c3ccc(OCCO)c(OC)c3)[nH]c3c(C#N)cnn23)ccc1F [Compound 116]
> 5000	0.51 to 2.99	COc1cc(Nc2c(-c3ccc(C(N)=O)cc3)[nH]c3c(C#N)cnn23)ccc1F [Compound 117]
< 10	< 0.5	COc1cc(Nc2c(-c3cc(O)c(OC)c(OC)c3)[nH]c3c(C#N)cnn23)ccc1F [Compound 118]
< 10	0.51 to 2.99	COc1cc(Nc2c(-c3ccc(OC)c(OC4CCCC4)c3)[nH]c3c(C#N)cnn23)ccc1F [Compound 119]
< 10	0.51 to 2.99	COc1cc(-c2[nH]c3c(C#N)cnn3c2Nc2ccc(F)c(C)c2)cc(OC)c1OC [Compound 120]

IC50 [1] [µM]	IC50 (Syk kinase) [µM]	SMILES
< 10	0.51 to 2.99	COCCOc1ccc(-c2[nH]c3c(C#N)cnn3c2Nc2ccc(F)c(OC)c2)cc1OC [Compound 122]
< 10	0.51 to 2.99	COc1ccc(Nc2c(-c3ccc(OCCN4CCOCC4)cc3)[nH]c3c(C#N)cnn23)cc1OC [Compound 124]
< 10	0.51 to 2.99	COc1ccc(Nc2c(-c3ccc(OC)c(OCC(N)=O)c3)[nH]c3c(C#N)cnn23)cc1OC [Compound 125]
< 10	< 0.5	COc1ccc(Nc2c(-c3cc(OC)c(OC)c(OC)c3)[nH]c3c(C#N)cnn23)cc1F [Compound 127]
< 10	0.51 to 2.99	COc1cc(Nc2c(-c3cc(OC)c(OC)c(OC)c3)[nH]c3c(C#N)cnn23)ccc1Cl [Compound 132]
< 10	0.51 to 2.99	COc1cc(-c2[nH]c3c(C#N)cnn3c2Nc2ccc(F)c(OC(C)C)c2)cc(OC)c1OC [Compound 133]
< 10	< 0.5	COc1ccc(Nc2c(-c3ccc(OCC(N)=O)c(OC)c3)[nH]c3c(C#N)cnn23)cc1OC [Compound 135]
< 10	0.51 to 2.99	COc1ccc(Nc2c(-c3cc(C)c(OC)c(C)c3)[nH]c3c(C#N)cnn23)cc1OC [Compound 136]
< 10	< 0.5	COc1cc(-c2[nH]c3c(C#N)cnn3c2Nc2ccc3c(c2)NC(=O)CO3)cc(OC)c1OC [Compound 137]
< 10	0.51 to 2.99	COc1cc(Nc2c(-c3ccc(OC)c(OCC(N)=O)c3)[nH]c3c(C#N)cnn23)ccc1F [Compound 138]
< 10	< 0.5	COc1cc(Nc2c(-c3ccc(OCC(N)=O)c(OC)c3)[nH]c3c(C#N)cnn23)ccc1F [Compound 139]
< 10	< 0.5	COc1ccc(Nc2c(-c3ccc(OCC(=O)NC4CC4)c(OC)c3)[nH]c3c(C#N)cnn23)cc1OC [Compound 140]
< 10	0.51 to 2.99	COc1cc(-c2[nH]c3c(C#N)cnn3c2Nc2ccc(OC(C)C)c(Cl)c2)cc(OC)c1OC [Compound 141]
< 10	< 0.5	COc1cc(Nc2c(-c3cc(OC)c(OC)c(OC)c3)[nH]c3c(C#N)cnn23)cc(OC)c1 [Compound 142]
< 10	< 0.5	COc1cc(-c2[nH]c3c(C#N)cnn3c2Nc2cc(F)c(OC)c(F)c2)cc(OC)c1OC [Compound 143]
< 10	0.51 to 2.99	CCOc1cc(Nc2c(-c3cc(OC)c(OC)c(OC)c3)[nH]c3c(C#N)cnn23)ccc1F [Compound 144]
< 10	0.51 to 2.99	COc1cc(-c2[nH]c3c(C#N)cnn3c2Nc2ccc(F)c(OC3CCCC3)c2)cc(OC)c1OC [Compound 145]
11 to 100	0.51 to 2.99	COc1cc(-c2[nH]c3c(C#N)cnn3c2Nc2cccc(CNC(=O)c3cccnc3)c2)cc(OC)c1OC [Compound 146]
< 10	< 0.5	COc1cc(-c2[nH]c3c(C#N)cnn3c2Nc2cccc(CNC(=O)c3ccccn3)c2)cc(OC)c1OC [Compound 147]
101 to 5000	< 0.5	COc1cc(-c2[nH]c3c(C#N)cnn3c2Nc2cccc(CNC(=O)c3ccncc3)c2)cc(OC)c1OC [Compound 148]
< 10	0.51 to 2.99	COc1cc(-c2[nH]c3c(C#N)cnn3c2Nc2ccc(CNC(=O)c3ccccn3)cc2)cc(OC)c1OC [Compound 149]
11 to 100	0.51 to 2.99	COc1cc(-c2[nH]c3c(C#N)cnn3c2Nc2ccc(CNC(=O)c3ccncc3)cc2)cc(OC)c1OC [Compound 150]
> 5000	0.51 to 2.99	COc1cc(-c2[nH]c3c(C#N)cnn3c2Nc2ccc(CNC(=O)c3ccc(C#N)nc3)cc2)cc(OC)c1OC [Compound 151]
